Test results: ChEMBL document CHEMBL3507680, “University of Dundee, Gates Library screen for HepG2 cell viability”

test: Human HepG2 cell viability assay in 384 well format; type: toxicity, cell-based; design: dose 125 nL, time 70.5 hour; concentration not given beside the values; conditions: HepG2 cells, read-out: Inhibition

| SMILES | cytotoxicity at 70.5 h |
| --- | --- |
| O=S1(=O)N(c2ccccc2)C[C@@H](O)[C@]12CCNC2 | -3.92% |
| CO[C@@H]1CN(c2ccccc2)S(=O)(=O)[C@@]12CCNC2 | 11.6% |
| CN1CC[C@H](N(C)Cc2ccccc2)C[C@H](O)C1 | -10.5% |
| CN1CC[C@H](N(Cc2ccccc2)C2COC2)C[C@H](O)C1 | -6.77% |
| COC(=O)CC1c2cccnc2C(=O)N1Cc1ccccc1 (stereo not given) | -3.32% |
| CCOC(=O)N1[C@@H](c2ccco2)[C@@H](C(=O)O)C[C@]12CCCCNC2=O | -7.52% |
| CCN1Cc2cc(F)ccc2N(CC(O)C(F)(F)F)CCC1=O (stereo not given) | -8.41% |
| CCCC(O)CN1CCC(=O)N(CC)Cc2cc3c(cc21)OCO3 (stereo not given) | -3.11% |
| CN1C(=O)[C@H](OC(N)=O)[C@@H](C(=O)Nc2ccccc2)C12CCNCC2 | -10.7% |
| CC(C)COC(=O)N1[C@@H](c2ccco2)[C@@H](CO)C[C@]12CCCCNC2=O | -9.55% |
| CCN1CCC(=O)N(C)Cc2cc(F)ccc21 | -8.5% |
| O=C(Nc1ccccc1)N1C(CN2CCOCC2)[C@]2(O)CC[C@H]1CC2 (stereo not given in full) | -2.88% |
| O=C1CCNc2ncc(-c3cccc(Cl)c3)cc2CN1C1CC1 | -1.89% |
| O=C1CCNc2ncc(-c3ccccc3Cl)cc2CN1C1CC1 | 0.196% |
| NC(=O)CN1CC(O)c2ccccc2S1(=O)=O (stereo not given) | -9.19% |
| COC1CN(CCO)S(=O)(=O)c2ccccc21 (stereo not given) | -7.83% |
| O=C1CCNc2cc3c(cc2CN1Cc1ccco1)OCO3 | -5.93% |
| CCOC(=O)[C@@H]1[C@@H](c2ccccc2)CN2CCNC[C@H]12 | -11% |
| CO[C@@H]1CN(c2ccccc2)S(=O)(=O)[C@@]12CCN(Cc1ccccc1)C2 | -1.84% |
| CO[C@@H]1CN(c2ccccc2)S(=O)(=O)[C@@]12CCN(Cc1cncs1)C2 | -2.7% |
| CO[C@H]1CN(c2ccccc2)S(=O)(=O)[C@@]12CCN(Cc1ccccc1)C2 | 19.1% |
| CC(O)CN1CCC(=O)N(Cc2ccccc2)Cc2ccccc21 (stereo not given) | 21.2% |

| SMILES | cytotoxicity at 70.5 h |
| --- | --- |
| COCC(O)CN1CCC(=O)N(CC=C(C)C)Cc2ccccc21 (stereo not given) | -6.53% |
| COCCN1CC(O)CN(C(=O)c2ccc(SC)cc2)CC1=O (stereo not given) | -4.29% |
| CCOC(=O)N1CC(=O)N(Cc2ccc(OC)cc2)CC(O)C1 (stereo not given) | 0.836% |
| CC(C)CN1CC(O)CN(C(=O)c2cccc(C(F)(F)F)c2)CC1=O (stereo not given) | 13.3% |
| CCCC(O)CN1CC(C)(C)CN(C(=O)CCc2ccccc2)CC1=O (stereo not given) | 19.5% |
| CC(C)(C)CN1CC(O)CN(C(=O)c2cccc(C(F)(F)F)c2)CC1=O (stereo not given) | -7.28% |
| COc1ccccc1C(=O)N1CC(=O)N(C2CCCCC2)CC(O)C1 (stereo not given) | 15.8% |
| O=C1CN(C(=O)c2ccc(Cl)cc2)CC(O)CN1Cc1cccs1 (stereo not given) | -5.51% |
| COC1CCN(C(=O)CC(C)(C)C)CC(=O)N(C)c2ccccc21 (stereo not given) | 6.54% |
| COC1CCN(C(=O)Nc2ccccc2)CC(=O)N(C)c2ccccc21 (stereo not given) | -6.71% |
| CCOC(=O)CNC(=O)N1CCC(OC)c2ccccc2N(C)C(=O)C1 (stereo not given) | -6.05% |
| CCOC(=O)COC1CCN(C(C)=O)CC(=O)N(C)c2ccccc21 (stereo not given) | -3.91% |
| O=C(CC1CCCC1)N1CCN2C[C@@H](CO)[C@H](c3ccccc3)[C@H]2C1 | 24.2% |
| CNC(=O)[C@@H]1[C@@H](c2ccccc2)CN2CCN(Cc3cc(C)no3)C[C@H]12 | -4.59% |
| Cc1cc(CN2CCN3C[C@H](c4ccccc4)[C@@H](CO)[C@H]3C2)on1 | -5.95% |
| COCC(=O)N1CC2=CC(C)(C)COc3ccc(OC)c(c32)C1 | 21.5% |
| COc1ccc2c3c1CN(C(=O)N(C)C)CC3=CC(C)(C)CO2 | -6.85% |
| COc1ccc2c3c1CN(S(C)(=O)=O)CC3=CC(C)(C)CO2 | -6.24% |
| CCCS(=O)(=O)N1CC(=O)N(Cc2ccccc2OC)CC(O)C1 (stereo not given) | 18.5% |
| CC(C)COC(=O)N1CC(=O)N(CCCc2ccccc2)CC(O)C1 (stereo not given) | -4.38% |
| COc1cccc(OC)c1CN1CC(O)CN(S(C)(=O)=O)CC1=O (stereo not given) | 25.6% |
| COC1CN(C(=O)NC2CCCC2)CCC(=O)N(C)c2ccccc21 (stereo not given) | -1.11% |

| SMILES | cytotoxicity at 70.5 h |
| --- | --- |
| CCN1Cc2cc(F)ccc2N(C(C)=O)CCC1=O | -3.82% |
| CCN1Cc2cc(F)ccc2N(C(=O)C2CCC2)CCC1=O | -9.67% |
| CC(C)CCc1cc(C(=O)O)nc2[nH]c(=O)[nH]c(=O)c12 | -15.5% |
| NCCC(Cc1ccccc1)c1ccco1 (stereo not given) | 35% |
| Cc1cnc(N2CCC3(CCC(C(=O)NC(C)C)OC3)CC2)nc1 (stereo not given) | -2.25% |
| CC(=O)NCc1noc2c1CN(Cc1ccsc1)CC2 | -7.56% |
| O=C(c1ncc(F)cc1F)N1CCC(c2ncc[nH]2)CC1 | -14% |
| CC(=O)c1cc(CN2C[C@@H](C(=O)O)[C@H](c3cccnc3)C2)cs1 | -7.32% |
| CN1CCN(Cc2ccc(-c3ccc(-c4ccn[nH]4)cc3)nc2)CC1 | 0.0371% |
| Cc1ccc(CN2CCN(CC(=O)N(C)C)[C@@H]3CS(=O)(=O)C[C@@H]32)cc1C | -3.23% |
| CN(C(=O)c1cccc(NCC(=O)O)c1)C(C1CC1)C1CC1 | -8.7% |
| Cc1ccc(CC(=O)N2C[C@@H](CN(C)C)[C@@H](CO)C2)cc1C | -2.62% |
| CC(C)c1nccc(CN2CCC(c3nc4ccccc4n3C)CC2)n1 | -20.5% |
| CCC1CN(C(=O)c2ccc(=O)[nH]n2)CCC(=O)N1Cc1ccccc1 (stereo not given) | 1.68% |
| CNC(=O)CNC(=O)CC1C(=O)NCCN1Cc1ccccc1C (stereo not given) | -5.79% |
| COc1cccc(-c2cccc(CN3C[C@@H]4CC[C@H](C3)N(C)C4=O)c2)c1 | 14.8% |
| Cc1nn(C)c(C)c1CCC(=O)NCc1csc(N2CCCC2)n1 | 2.01% |
| Cc1[nH]c(-c2ccccc2)nc1C(=O)N1CCC2(CCCO2)CC1 | -2.81% |
| CN(CCc1ccccc1)c1cnn(CC(=O)N2CCOCC2)c(=O)c1 | -7.73% |
| CCOCC(O)CN1CCN(C(=O)c2ccc(OC)cc2)CC1 (stereo not given) | -9.9% |
| CC(C)N(C)S(=O)(=O)N(C)Cc1ccc2c(c1)OCCO2 | 4.58% |
| CC(NC(=O)NCc1ccccn1)c1ccc2c(c1)CCC(=O)N2 (stereo not given) | -6.54% |

| SMILES | cytotoxicity at 70.5 h |
| --- | --- |
| CC(Cn1cccn1)NC(=O)Nc1nncs1 (stereo not given) | -2.31% |
| Cc1nc(CNC(=O)NCc2cccnc2N(C)C)cs1 | -5.06% |
| COC(=O)C(NC(=O)C1CCCC1)c1cc(F)ccc1F (stereo not given) | 0.552% |
| CC(O)CN1CCN(C(=O)c2cc3ccccc3n2C)CC1 (stereo not given) | 14.8% |
| Cc1nc(C2CCCN2C(=O)CCCn2cccn2)no1 (stereo not given) | 3.27% |
| Cn1cnnc1C1CCCN(C(=O)NCc2ccccn2)C1 (stereo not given) | 15.7% |
| CN(Cc1ccco1)C(=O)C1CSCN1C(=O)c1cccs1 (stereo not given) | 12.5% |
| CCc1c(C(=O)N2CCCC(N(C)C)C2)cnn1C(C)(C)C (stereo not given) | -4.41% |
| Cc1nn(C)c(C)c1C1CCCN1C(=O)CCNS(C)(=O)=O (stereo not given) | -5.69% |
| Cc1nc2n(n1)CC(NCc1cc(Cl)c3c(c1)OCCO3)CC2 (stereo not given) | -4.92% |
| Cc1nn(C)c(Cl)c1C1CCCN1C(=O)CCNc1ncccn1 (stereo not given) | -2.34% |
| COc1c(C2CCCN2C(=O)CCNc2ncccn2)c(C)nn1C (stereo not given) | -10.7% |
| COc1cc(CNC2CCc3nc(C)nn3C2)cc2c1OCO2 (stereo not given) | -5.53% |
| Cc1nnc(NC(=O)NCc2ccc(OC3CCCC3)nc2)s1 | 1.95% |
| Cc1[nH]ncc1CCCNC(=O)N1CCCC(c2nncn2C)C1 (stereo not given) | -1.78% |
| Cn1cc(CCNC(=O)N2CCCC(c3nncn3C)C2)cn1 (stereo not given) | -4.93% |
| CCOCCCn1c(NC(=O)c2cnc(C)cn2)nc2ccccc21 | -5.61% |
| CCc1c(C(=O)N2CCC(CC(N)=O)CC2)cnn1C(C)(C)C | -3.41% |
| CCOCCCn1c(NC(=O)c2cc(C)no2)nc2ccccc21 | 2.27% |
| Cc1ccccc1CN(C)C(=O)CN1CCCC(Cn2cncn2)C1 (stereo not given) | -6.64% |
| CC(O)CN1CCN(Cc2coc(-c3ccc(Cl)cc3)n2)CC1 (stereo not given) | -5.87% |
| Cc1cnc(CN(C)C2CCCN(Cc3noc(C4CC4)n3)C2)cn1 (stereo not given) | 16.1% |

| SMILES | cytotoxicity at 70.5 h |
| --- | --- |
| Cc1cc(CN(C)C2CCCN(Cc3noc(C)n3)C2)no1 (stereo not given) | 7.31% |
| Cc1nnc(CN(C)C2CCCN(Cc3noc(C4CC4)n3)C2)o1 (stereo not given) | -8.76% |
| CN(Cc1ccccn1)C1CCCN(Cc2noc(C3CC3)n2)C1 (stereo not given) | -8.62% |
| CCc1ncncc1C(=O)N1CCCN(Cc2ccccc2C)CC1 | -8.2% |
| Cc1cc(NC(=O)CN2CCCC2Cn2nc(C)nc2C)n(C)n1 (stereo not given) | -14.8% |
| CCc1ccc(C(=O)NCCNc2ncccn2)cc1 | 11.9% |
| O=C(Cc1ccc2c(c1)CCCC2)NCCNc1cnccn1 | -11.7% |
| Cc1cccc(N2CCN(C(=O)CCc3c(C)noc3Cl)CC2)c1 | -8.69% |
| O=C(CNC(=O)c1ccc2c(c1)CCC2)NCCNc1ncccn1 | -14.4% |
| Cc1cnn(C2CN(CC(=O)NCCc3ccsc3)C2)c1 | -13.7% |
| CCCOCC(=O)NS(=O)(=O)c1ccc2c(c1)OCCO2 | -0.678% |
| Cc1cnn(C2CN(CC(=O)NCCc3c[nH]c4ccccc34)C2)c1 | -9.92% |
| O=C(COCC(F)(F)F)NS(=O)(=O)c1ccc2c(c1)OCCCO2 | -6.81% |
| CC(C)CC(=O)NS(=O)(=O)c1ccc2c(c1)OCCCO2 | -8.04% |
| COc1cc(CCC(=O)NC(C)C(=O)O)ccc1OCC(F)(F)F (stereo not given) | -13% |
| CCCc1ccc(OCCNCc2ccco2)c(OC)c1 | -1.62% |
| Cc1cnc(N2CCC3(CCC(C(=O)NC(C)C)C3)CC2)nc1 (stereo not given) | -7.58% |
| COCCN1CCO[C@H]2CCN(C(=O)c3ccnnc3)CC[C@@H]21 | -8.98% |
| O=S(=O)(c1ccc(F)cc1)N1CC[C@H]2[C@H]1CCN2c1ncccn1 | -2.97% |
| O=S(=O)(c1cccc(F)c1)N1CC[C@H]2[C@H]1CCN2c1ncccn1 | 1.7% |
| CN(C)c1cc(NCc2cnc3n2CCN(CC2CC2)CC3)ncn1 | 2.24% |
| Cn1ccc(CN2CCC3(CC2)CC(Nc2ccccn2)CO3)n1 (stereo not given) | -2.31% |
